A short description of data set [1]: collision cross section (TIMS, N2 drift gas) of the primary ion; higher = larger gas-phase ion size.
A short description of data set [2]: reversed-phase LC retention time (C18, 15 min MeOH gradient); higher = more hydrophobic / later elution.
The mark [3] stands for this setting: ionization mode: ESI+, ion species: [M+H]+.
Setting [4] is: ionization mode: ESI-, ion species: [M-H]-.

`Nc1ccc2nc3c(N)cccc3nc2c1` [1,7-Diaminophenazine]: the collision cross section in data set [1] (setting [3]) is recorded as 143.6 Å². Besides, the “reversed-phase LC retention time” value in data set [2] (setting [3]) amounted to 8.4 min.

Molecule `OC(Cn1cncn1)(c1ccc(F)cc1)c1ccccc1F` (configuration not stated) [Flutriafol] displayed a collision cross section in data set [1] (setting [3]) of 167.74 Å². Further, the “reversed-phase LC retention time” value in data set [2] (setting [3]) was 12.9 min.

In data set [1] (setting [3]), `Cc1cc(O)cc(C)c1S(C)=O` (configuration not stated) [Methiocarb-sulfoxide phenol] displayed a collision cross section of 138.02 Å². Further, the “reversed-phase LC retention time” value in data set [2] (setting [3]) worked out at 8.4 min.

In the case of `Cc1cccc(C)c1N(Cn1cccn1)C(=O)CS(C)=O` (configuration not stated) [Metazachlor BH 479-11], the collision cross section in data set [1] (setting [3]) is on record as 163.01 Å². For the same molecule, the “reversed-phase LC retention time” value in data set [2] (setting [3]) came out at 10.3 min.

For the molecule `Oc1ccc(Cl)cc1Cc1ccccc1` [Chlorophene], the collision cross section in data set [1] (setting [4]) is 147.97 Å². For the same molecule, in data set [2] (setting [4]), the “reversed-phase LC retention time” value turned out to be 15.9 min.

`CN1CCN(C)C1=O` [1,3-Dimethyl-2-imidazolidinone] registered a collision cross section in data set [1] (setting [3]) of 116.95 Å². Besides, the “reversed-phase LC retention time” value in data set [2] (setting [3]) was found to be 6.07 min.

For `Cc1nc(N(C)C)nc(OC(=O)N(C)C)c1C` [Pirimicarb], the collision cross section in data set [1] (setting [3]) worked out at 156.34 Å². The “reversed-phase LC retention time” value in data set [2] (setting [3]) amounted to 10.5 min.

As to `O=c1[nH]sc2ccccc12` [1,2-Benzisothiazolinone], the collision cross section was found to be 125.68 Å² in data set [1] (setting [3]) and 122.13 Å² in data set [1] (setting [4]). The results for the “reversed-phase LC retention time” value in data set [2] (setting [3]) and in data set [2] (setting [4]) were 8.77 min and 10.6 min, respectively.

On to `O=S(=O)(O)C(F)(F)F` [Trifluoromethanesulfonic acid], for which the collision cross section in data set [1] (setting [4]) is given as 108.15 Å². Besides, the “reversed-phase LC retention time” value in data set [2] (setting [4]) is 1.37 min.

`CC(C)(C)c1cc(CCC(=O)NCCCCCCNC(=O)CCc2cc(C(C)(C)C)c(O)c(C(C)(C)C)c2)cc(C(C)(C)C)c1O`: the collision cross section in data set [1] (setting [3]) stood at 263.68 Å²; in data set [1] (setting [4]), 254.68 Å². Moreover, the “reversed-phase LC retention time” value was determined as 17.8 min in data set [2] (setting [3]) and 18.3 min in data set [2] (setting [4]).

Regarding `CN(C)CCC(c1ccc(Cl)cc1)c1ccccn1` (configuration not stated) [Chlorpheniramine], the collision cross section in data set [1] (setting [3]) is listed as 164.13 Å². For the same molecule, the “reversed-phase LC retention time” value in data set [2] (setting [3]) turned out to be 10.8 min.

Consider `CCCCCCOC(=O)c1ccccc1C(=O)OCCCCCC` [Di-n-hexyl phthalate], for which the collision cross section in data set [1] (setting [3]) amounted to 195.44 Å². Further, the “reversed-phase LC retention time” value in data set [2] (setting [3]) worked out at 18.2 min.

Take `CC(CCc1ccccc1)NCC(O)c1ccc(O)c(C(N)=O)c1` (configuration not stated) [Labetalol]: the collision cross section in data set [1] (setting [3]) is 176.34 Å². The “reversed-phase LC retention time” value in data set [2] (setting [3]) worked out at 10.5 min.

In data set [1] (setting [3]), `CN1CCCC(n2nc(Cc3ccc(Cl)cc3)c3ccccc3c2=O)CC1` (configuration not stated) [Azelastine] yielded a collision cross section of 189.23 Å². Also, in data set [2] (setting [3]), the “reversed-phase LC retention time” value turned out to be 12.7 min.

The molecule `COP(=S)(OC)Oc1ccc(SC)c(C)c1` [Fenthion] returned a collision cross section in data set [1] (setting [3]) of 160.76 Å². In addition, the “reversed-phase LC retention time” value in data set [2] (setting [3]) stood at 14.1 min.

For the molecule `CO/N=C(/C(=O)O)c1ccccc1CO/N=C(/C(=O)O)c1cccc(C(F)(F)F)c1`, the collision cross section in data set [1] (setting [3]) turned out to be 194.45 Å². The “reversed-phase LC retention time” value in data set [2] (setting [3]) was determined as 13.1 min.

The molecule `Nc1c(Cl)c(F)nc(OCC(=O)O)c1Cl` [Fluroxypyr] gave a collision cross section in data set [1] (setting [4]) of 139.78 Å². Besides, the “reversed-phase LC retention time” value in data set [2] (setting [4]) was determined as 7.61 min.

`CC(C)OC(=O)CCCCCCCCC(=O)OC(C)C` [Diisopropyl sebacate] showed a collision cross section in data set [1] (setting [3]) of 172.78 Å². Also, the “reversed-phase LC retention time” value in data set [2] (setting [3]) came out at 17 min.

The molecule `Cn1sc(Cl)cc1=O` [Methylchloroisothiazolinone] gave a collision cross section in data set [1] (setting [3]) of 120.77 Å². Further, in data set [2] (setting [3]), the “reversed-phase LC retention time” value amounted to 7.46 min.

Turning to `CC(C)C1CCC(Cc2ccc(Cl)cc2)C1(O)Cn1cncn1` (configuration not stated) [Ipconazole], the collision cross section in data set [1] (setting [3]) turned out to be 174.42 Å². For the same molecule, in data set [2] (setting [3]), the “reversed-phase LC retention time” value was 16.4 min.

On to `CCN(CC)c1nc(=O)cc(C)[nH]1` [2-(Diethylamino)-6-methylpyrimidin-4-one], for which the collision cross section in data set [1] (setting [3]) was determined as 138.67 Å². Moreover, the “reversed-phase LC retention time” value in data set [2] (setting [3]) came to 7.54 min.

In data set [1] (setting [3]), `O=C1NC(=O)C2CC=CCC12` (configuration not stated) [Tetrahydrophthalimide] showed a collision cross section of 130.01 Å². The “reversed-phase LC retention time” value in data set [2] (setting [3]) is 5.38 min.

Regarding `NC(=O)N1c2ccccc2C=Cc2ccccc21` [Carbamazepine], the collision cross section in data set [1] (setting [3]) is recorded as 150.05 Å². Moreover, in data set [2] (setting [3]), the “reversed-phase LC retention time” value came to 12.3 min.

On to `CCCCC(C#N)(Cn1cncn1)c1ccc(Cl)cc1` (configuration not stated) [Myclobutanil], for which the collision cross section in data set [1] (setting [3]) was found to be 175 Å². In addition, in data set [2] (setting [3]), the “reversed-phase LC retention time” value turned out to be 14.5 min.

In data set [1] (setting [3]), `N=C(Nc1ccccc1)Nc1ccccc1` [1,3-Diphenylguanidine] registered a collision cross section of 150.19 Å². Besides, in data set [2] (setting [3]), the “reversed-phase LC retention time” value was found to be 8.61 min.

On to `Nc1ccc(Cc2ccc(N)c(Cl)c2)cc1Cl` [2,2'-dichloro-4,4'-methylenedianiline], for which the collision cross section in data set [1] (setting [3]) was 173.31 Å². For the same molecule, the “reversed-phase LC retention time” value in data set [2] (setting [3]) worked out at 13.8 min.

`CNC(=O)CSP(=O)(OC)OC` [Omethoate]: in data set [1] (setting [3]), the collision cross section is 135.65 Å². In addition, in data set [2] (setting [3]), the “reversed-phase LC retention time” value was 6.04 min.

As to `CN/C(=C\[N+](=O)[O-])NCCSCc1ccc(CN(C)C)o1` [Ranitidine], the collision cross section is given as 168.6 Å² in data set [1] (setting [3]) and 181.06 Å² in data set [1] (setting [4]). For the same molecule, the “reversed-phase LC retention time” value is 6.09 min in data set [2] (setting [3]) and 10.1 min in data set [2] (setting [4]).

`CC(C)c1ccc2sc3ccccc3c(=O)c2c1` [2-Isopropylthioxanthone]: the collision cross section in data set [1] (setting [3]) is listed as 155.68 Å². Besides, in data set [2] (setting [3]), the “reversed-phase LC retention time” value was determined as 17.1 min.

Take `CCOC(=O)C1=C(C)NC(C)=C(C(=O)OC)C1c1cccc([N+](=O)[O-])c1` (configuration not stated) [Nitrendipin]: the figures for the collision cross section in data set [1] (setting [3]) and in data set [1] (setting [4]) were 184.47 Å² and 183.62 Å², respectively. Also, the “reversed-phase LC retention time” value in data set [2] (setting [3]) turned out to be 14.4 min; in data set [2] (setting [4]) it was 14.7 min.

With `Cc1nn(C)c(Oc2ccccc2)c1/C=N/OCc1ccc(C(=O)OC(C)(C)C)cc1` [Fenpyroximate], the collision cross section in data set [1] (setting [3]) is 203.95 Å². Besides, the “reversed-phase LC retention time” value in data set [2] (setting [3]) was determined as 17.5 min.

Turning to `CCC(C)n1c(=O)[nH]c(C)c(Br)c1=O` (configuration not stated) [Bromacil], the collision cross section in data set [1] (setting [3]) is on record as 144.76 Å². The “reversed-phase LC retention time” value in data set [2] (setting [3]) came to 11.4 min.

Regarding `OC(Cc1ccccc1Cl)(Cn1cncn1)C1(Cl)CC1` (configuration not stated) [Prothioconazole-desthio], the collision cross section in data set [1] (setting [3]) is 168.06 Å². Moreover, the “reversed-phase LC retention time” value in data set [2] (setting [3]) is 14.9 min.

For the molecule `COc1cc(Cc2cnc(N)nc2N)cc(OC)c1OC` [Trimethoprim], the collision cross section in data set [1] (setting [3]) stood at 173.75 Å². The “reversed-phase LC retention time” value in data set [2] (setting [3]) stood at 7.8 min.

In turn, `Oc1ccc(C(=C(Cl)Cl)c2ccc(O)cc2)cc1` [Bisphenol C] yielded a collision cross section in data set [1] (setting [4]) of 164.81 Å². In data set [2] (setting [4]), the “reversed-phase LC retention time” value stood at 14.5 min.

Turning to `Cc1ccccc1N=C(N)Nc1ccccc1C` [1,3-Di-o-tolylguanidine], the collision cross section in data set [1] (setting [3]) was 157.64 Å²; in data set [1] (setting [4]), 158.32 Å². Further, the “reversed-phase LC retention time” value was determined as 9.72 min in data set [2] (setting [3]) and 11 min in data set [2] (setting [4]).

For the molecule `Nc1ccc(Cc2ccc(N)cc2)cc1` [4,4'-Methylenedianiline], the collision cross section in data set [1] (setting [3]) is reported as 162.72 Å². In data set [2] (setting [3]), the “reversed-phase LC retention time” value was found to be 5.68 min.

Consider `O=C(Nc1ccccc1)N(Cc1ccc(Cl)cc1)C1CCCC1` [Pencycuron], for which the collision cross section in data set [1] (setting [3]) came to 181.17 Å². Besides, the “reversed-phase LC retention time” value in data set [2] (setting [3]) came to 16.1 min.

In data set [1] (setting [3]), `CCN(CCCCOC(=O)c1ccc(OC)c(OC)c1)C(C)Cc1ccc(OC)cc1` (configuration not stated) [Mebeverine] showed a collision cross section of 202.99 Å². In addition, the “reversed-phase LC retention time” value in data set [2] (setting [3]) came to 11.9 min.

As to `Cc1ccc(N)cc1Cl` [3-Chloro-4-methylaniline], in data set [1] (setting [3]), the collision cross section is 148.73 Å². Also, in data set [2] (setting [3]), the “reversed-phase LC retention time” value stood at 12.2 min.

As to `CCc1cccc(C)c1N(C(=O)CS(=O)(=O)O)[C@@H](C)C(=O)O`, in data set [1] (setting [4]), the collision cross section stood at 167.47 Å². Moreover, in data set [2] (setting [4]), the “reversed-phase LC retention time” value is 8.5 min.

Values taken from the supplement of paper PMC12613149.
